# From US20140148504A1, “NOVEL USE OF FLAVONE-BASED COMPOUND” (Industry-Academic Cooperation Foundation, Younsei University, priority 2011, published 2014)
# Tests used:
# [1] = system: Collagenase-1 (Matrix Metalloproteinase-1, MMP-1); experiment: Inhibition of UV-induced Collagenase-1 (MMP-1) production in human fibroblasts (ELISA kit); type: cell-based; conditions: 15 mJ UV, 20 μM flavones, 20 μg/ml ethanol extract, FIG. 11
# Method: (§1) Firstly, human fibroblasts were placed in a 96-well microtiter plate (5,000 cells/well) containing DMEM (Dulbecco's Modified Eagle's Media) which comprises 2.5% bovine fetal serum, and cultured until they reached a growth rate of around 90%. Then, the cells were treated for 24 hours in serum-free DMEM containing 20 μM of 5,7-dimethoxyflavone, 20 μM 5,7,4′-trimethoxyflavone, 20 μM 3,5,7,3′,4′-pentamethoxyflavone and 20 μg/ml of the ethanol extract of Kaempferia parviflora of Examples 1-4, respectively, and followed by the exposure to 15 mJ of UV. Subsequently, the cells were additionally treated with serum-free DMEM containing 20 μM of 5,7-dimethoxyflavone, 20 μM 5,7,4′-trimethoxyflavone, 20 μM 3,5,7,3′,4′-pentamethoxyflavone and 20 μg/ml of the ethanol extract of Kaempferia parviflora of Examples 1-4, respectively. After 24 hours, the cell culture was collected and centrifuged to obtain the supernatant.
# For the resulting supernatant, the degree of Collagenase-1 (MMP-1) production was observed by Collagenase-1 Measurement Kit (QIA55, Merch & Co., USA). Firstly, the above obtained cell culture was placed in a 96-well plate evenly coated with primary antibodies against Collagenase-1 (MMP-1), followed by antigen-antibody reaction for 2 hours at room temperature. After 2 hours, primary antibodies against collagen with fluorescence were added to the said 96-well plate for 1 hour. After 1 hour, a substance inducing color formation was added and left for 30 minutes at room temperature. Then, a termination buffer was added to discontinue the color formation, resulting in the formation of yellow color. The degree of yellow color varied depending on the degree of the said reaction process. Absorbance of the 96-well plate showing yellow color was measured with an absorptiometer at 450 nm.
# [2] = system: Procollagen Type-I C Peptide (PIP); experiment: Enhancing effect on collagen production (Procollagen Type-I C Peptide ELISA) in UV-exposed human fibroblasts; type: cell-based; conditions: 15 mJ UV, 20 μM flavones, 20 μg/ml ethanol extract, PIP in supernatant
# Method: as §1, with “supernatant. For the obtained supernatant, the production of Procollagen Type-I C Peptide (PIP), an indicator of collagen production, was quantitatively measured by ELISA kit (MK101, Takara Bio Ink., Japan) so as to observe their effect on collagen production.” for “supernatant.”
# Firstly, antibody-PIP conjugates tagged to peroxidase were added to a 96-well plate evenly coated with mouse monoclonal antibodies against Procollagen. Then, the above obtained cell culture was added and reacted for 3 hours in an incubator, followed by the addition of substrate solution for color formation. Upon staying for 15 minutes at room temperature, the reaction was ended after the addition of reaction termination solution. Absorbance was measured with an absorptiometer at 450 nm.
# [3] = system: hairless mice (Hos: HR-1); experiment: In vivo improvement of UV-induced wrinkles, application onto the skin (skin replicas, Skin Visiometer); conditions: UV-exposed hairless mice; for wrinkle formation (skin replicas) in comparison with UV-treated Group: 50 μL applied onto the back every day for 8 weeks, FIG. 12; for Rt, Rm, Rz and Ra values (degree of wrinkle formation): skin application for 8 weeks, p<0.05, FIGS. 13A-13D
# Method: (§2) Forty eight (48) 6-week-old female hairless mice (Hos: HR-1) were accustomed for a week and randomly divided into six (6) groups, eight (8) mice per each group. The hairless mice were exposed to UV for 8 weeks. UV irradiation was carried out 3 times a week, while the amount of UV irradiation was increased from 1 MED (1 MED=50 mJ/cm^2) to 4 MED which was then kept until the end of the test. Test groups were divided into a total of six groups, i.e. Non UV-treated Group, UV-treated Group, UV+5,7-dimethoxyflavone-treated Group, UV+5,7,4′-trimethoxyflavone-treated Group, UV+3,5,7,3′,4′-pentamethoxyflavone-treated Group, and UV+ethanol extract of Kaempferia parviflora-treated Group. Each sample was dissolved in a mixture solvent of ethanol and polyethylene glycol (7:3, v/v), and 50 μL of each sample was applied onto the back of the mice every day for 8 weeks. For the Non UV-treated group and the UV-treated group, 50 μL of a mixture of ethanol and polyethylene glycol (7:3, v/v) was applied. In order to test the preventative effect of wrinkle formation, skin replicas were taken using silicone polymer (SILFLO Impression Material, Flexico, England). The image files of the skin replicas were subjected to wrinkle evaluation using the computer imaging analysis system, i.e. Skin Visiometer SV 600 software (Courage+Khazaha Electronic, Kln, Germany). Rt, Rm, Rz and Ra values (Rt: the distance from the highest and lowest portions on the skin surface, Rm: the maximum Rt value among five (5) measurements, Rz: the mean Rt value of five measurements, Ra: the arithmetic mean value of surface roughness) were determined The results are shown in FIGS. 12 and 13A to 13D.
# [4] = system: hairless mice (Hos: HR-1); experiment: In vivo improvement of UV-induced wrinkles, oral administration (skin replicas, Skin Visiometer); conditions: UV-exposed hairless mice, oral daily for 8 weeks, flavones 50 mg/kg/day, extract 200 mg/kg/day; for wrinkle formation (skin replicas) compared with UV-treated Group: FIG. 14; for Rt, Rm, Rz and Ra values (degree of wrinkle formation): p<0.05, FIGS. 15A-15D
# Method: (§3) To the hairless mice exposed to UV in Example 7-1,5,7-dimethoxyflavone (50 mg/kg/day), 5,7,4′-trimethoxyflavone (50 mg/kg/day), 3,5,7,3′,4′-pentamethoxyflavone (50 mg/kg/day) and the ethanol extract of Kaempferia parviflora (200 mg/kg/day) dissolved in 0.5% carboxymethyl cellulose solution containing 5% Tween 80 were orally administered daily for 8 weeks. For the control groups (Non UV-treated Group and UV-treated Group), 0.5% carboxymethyl cellulose solution was administered. In order to test the preventative effect of wrinkle formation, skin replicas were taken using silicone polymer (SILFLO Impression Material, Flexico, England). The image files of the skin replicas were subjected to wrinkle evaluation using the computer imaging analysis system, i.e. Skin Visiometer SV 600 software (Courage+Khazaha Electronic, Kln, Germany).
# [5] = system: hairless mice (Hos: HR-1); experiment: UV-induced Trans-Epidermal Water Loss (TEWL), application onto the skin (Tewameter); type: in vivo; conditions: UV-exposed hairless mice, skin application for 8 weeks; back skin
# Method: as §2
# By using Tewameter (TM 300, Courage+Khazaha Electronic, Kln, Germany), Trans-Epidermal Water Loss (TEWL) was measured on the back of the mice in Example 7-1.
# [6] = system: hairless mice (Hos: HR-1); experiment: UV-induced Trans-Epidermal Water Loss (TEWL), oral administration (Tewameter); type: in vivo; conditions: UV-exposed hairless mice, oral daily for 8 weeks; flavones 50 mg/kg/day, extract 200 mg/kg/day
# Method: as §3
# By using Tewameter (TM 300, Courage+Khazaha Electronic, Kln, Germany), Trans-Epidermal Water Loss (TEWL) was measured on the back of the mice in Example 7-2.
# [7] = system: hairless mice (Hos: HR-1); experiment: Skin elasticity, application onto the skin (Cutometer); type: in vivo; conditions: UV-exposed hairless mice, skin application for 8 weeks; Non UV-treated Group = 100
# Method: as §2
# By using Cutometer (MPA 580, Courage+Khazaha Electronic, Germany), skin elasticity was measured on the back of the mice in the above Example 7-1 and compared with Non UV-treated Group.
# [8] = system: hairless mice (Hos: HR-1); experiment: Skin elasticity, oral administration (Cutometer); type: in vivo; conditions: UV-exposed hairless mice, oral daily for 8 weeks; flavones 50 mg/kg/day, extract 200 mg/kg/day; Non UV-treated Group = 100
# Method: as §3
# By using Cutometer (MPA 580, Courage+Khazaha Electronic, Germany), skin elasticity was measured on the back of the mice in Example 7-2 and compared with Non UV-treated Group.
Compound,inhibition of Collagenase-1 (MMP-1) activity induced by UV light [1],Content of Collagen [2] [ng/10^5 cell],wrinkle formation (skin replicas) in comparison with UV-treated Group [3],"Rt, Rm, Rz and Ra values (degree of wrinkle formation) [3]",wrinkle formation (skin replicas) compared with UV-treated Group [4],"Rt, Rm, Rz and Ra values (degree of wrinkle formation) [4]",TEWL [5] [g/m^2/hr],TEWL [6] [g/m^2/hr],Degree of skin elasticity [7] [%],Degree of skin elasticity [8] [%]
"COc1cc(OC)c2c(=O)c(OC)c(-c3ccc(OC)c(OC)c3)oc2c1 [3,5,7,3′,4′-pentamethoxyflavone]",excellent for inhibiting Collagenase-1 (MMP-1) activity,226.5,remarkable decrease in wrinkle formation,significantly reduced,remarkable decrease in wrinkle formation,significantly reduced,22.0,20.3,72.3,81.7
"COc1ccc(-c2cc(=O)c3c(OC)cc(OC)cc3o2)cc1 [5,7,4′-trimethoxyflavone]",excellent for inhibiting Collagenase-1 (MMP-1) activity,230.0,remarkable decrease in wrinkle formation,significantly reduced,remarkable decrease in wrinkle formation,significantly reduced,24.8,19.6,76.9,85.6
"COc1cc(OC)c2c(=O)cc(-c3ccccc3)oc2c1 [5,7-dimethoxyflavone]",excellent for inhibiting Collagenase-1 (MMP-1) activity,236.7,remarkable decrease in wrinkle formation,significantly reduced,remarkable decrease in wrinkle formation,significantly reduced,19.4,16.4,83.5,77.3
